# Results published in PubChem BioAssay (NCI).
# “And” between values parts separate entries of the source, which are not always exact repeats. Identical values can stand only once.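 These data come from cells grown in 96-well plates and exposed to compound for 48 hours at five concentrations. GI50 is the concentration that inhibits growth by half. At the TGI there is no net growth.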 Starred links: 1 amine or outer side, 2 acyl side, 3 side chain; linkers in the order of their positions; H or OH if unused. Positions of bridges follow the written chain, without caps; N, C: chain ends. Non-standard residues stand in square brackets, D forms with d. Residues, ends and D or L forms follow the SMILES beside them. Chains are numbered I, II in the order given. Actinocin(1to9) = Cc1c2oc3c(C)ccc(C(=O)[*:2])c3nc-2c(C(=O)[*:1])c(N)c1=O; NMeV = CN[CH](C(=O)O)C(C)C; Sar = CNCC(=O)O
# How the values were obtained:
# Assay in all cases: inhibition of tumour cell growth, NCI panel, 48 h
# A498 renal = system: A498 renal
# HT29 colon = system: HT29 colon
# NCI-H226 lung = system: NCI-H226 lung
# K-562 leukemia = system: K-562 leukemia
# HOP-92 NSCLC = system: HOP-92 NSCLC
# SW-620 colon = system: SW-620 colon
# HCC-2998 colon = system: HCC-2998 colon
# DU-145 prostate = system: DU-145 prostate
# OVCAR-4 ovarian = system: OVCAR-4 ovarian
# MCF7 breast = system: MCF7 breast
Compound,TGI (A498 renal) [µM],TGI (HT29 colon) [µM],TGI (NCI-H226 lung) [µM],TGI (K-562 leukemia),TGI (HOP-92 NSCLC) [µM],TGI (SW-620 colon) [µM],TGI (HCC-2998 colon) [µM],TGI (DU-145 prostate) [µM],TGI (OVCAR-4 ovarian) [µM],TGI (MCF7 breast) [µM],GI50 (A498 renal) [nM],GI50 (DU-145 prostate) [µM],GI50 (NCI-H226 lung) [µM],GI50 (HOP-92 NSCLC) [µM],GI50 (SW-620 colon) [µM],GI50 (OVCAR-4 ovarian) [µM],GI50 (MCF7 breast) [µM],GI50 (HCC-2998 colon) [µM],GI50 (HT29 colon) [nM]
N#CC12Cc3cc4c(cc3-c3cccc(c31)CCN2C(=O)c1ccccc1)OCO4 (centres undefined),> 100,> 100,> 100,> 100 µM,89.5,> 100,> 100,–,–,–,–,–,–,–,–,–,–,–,–
Clc1ccccc1/C=c1\nc(-c2ccccc2)n2c1nc1ccccc12,> 100,> 100,> 100,> 100 µM,> 100,> 100,–,> 100,> 100,> 100,–,–,–,–,–,–,–,–,–
CC(C)(C)OC(=O)NC(CCCCNC(=O)OCc1ccccc1)C(=O)NCCNc1ccc(NCCNC(=O)C(CCCCNC(=O)OCc2ccccc2)NC(=O)OC(C)(C)C)c2c1C(=O)c1ccccc1C2=O (centres undefined),> 100,> 100,> 100,> 100 µM,> 71.4,> 100,> 100,> 100,> 100,27.2,–,–,–,–,–,–,–,–,–
COc1ccc(C(=O)C2=NON3OC23C(=O)c2ccc(OC)cc2)cc1 (centres undefined),18.2,52.9,33.3,8.29 µM,5.16,11.4,32.8,–,16.2,–,–,–,–,–,–,–,–,–,–
O=C(O[C@@H](/C=C/c1ccccc1)P1(=O)N(Cc2ccccc2)[C@H]2CCCC[C@@H]2N1Cc1ccccc1)c1ccccc1,8.43,> 100,13.2,> 100 µM,45.2,> 100,18.2,> 100,> 100,6.77,–,–,–,–,–,–,–,–,–
O=c1[nH]c(Nc2ccc(Cl)c(C(F)(F)F)c2)nc2nc[nH]c12,60.9,> 100,> 100,> 100 µM,> 100,> 100,57.4,> 100,> 100,> 100,–,–,–,–,–,–,–,–,–
CN(C)c1ccc(C=Nc2ccc(-c3nc4ccccc4[nH]3)cc2)cc1,> 100,> 100,> 100,> 100 µM,> 100,> 100,–,> 100,> 100,> 100,–,–,–,–,–,–,–,–,–
COCC1CCCN1c1ccc(C=N/C(C#N)=C(\N)C#N)cc1 (centres undefined),> 100,–,> 100,–,46,> 100,> 100,> 100,> 100,> 100,> 100000,6.25,4.68,14.3,> 100,> 100,33.4,> 100,–
OCc1cn(C(c2ccccc2)(c2ccccc2)c2ccccc2)cn1,–,> 100,> 100,> 100 µM,> 100,> 100,> 100,> 100,> 100,–,–,–,–,–,–,–,–,–,–
c1ccc(-c2nnn3c2NC2=C(CCCC2)C3c2ccccc2)cc1 (centres undefined),–,28.4,> 100,29.2 µM,–,28.9,–,33.3,–,51.9,–,–,–,–,–,–,–,–,–
COc1c(CC=C(C)C)c(O)c(C(CC(C)C)c2c(O)c3c(c(C(C)=O)c2O)OC(C(C)(C)O)C3)c(O)c1C(C)=O (centres undefined),12.3,> 12.5,–,9.11 µM,6.43,> 12.5,> 12.5,> 12.5,> 12.5,9.87,–,–,–,–,–,–,–,–,–
OC(c1ccccc1)(c1ccccc1)c1nccc2ccccc12,–,> 100,–,–,–,–,–,> 100,> 100,> 100,–,–,–,–,–,–,–,–,–
CC(O)(Cc1ccccc1C#N)Cc1ccccc1C#N,> 100,> 100,> 100,> 100 µM,> 100,> 100,> 100,> 100,> 100,> 100,–,–,–,–,–,–,–,–,–
CC(=O)OC1CC[C@@]2(C)C(=CC[C@@H]3[C@@H]2CC[C@]2(C)Nc4nn(S(C)(=O)=O)cc4C[C@@H]32)C1 (some centres undefined),> 100,25.4,92,> 100 µM,> 100,–,> 100,> 100,–,40.7,–,–,–,–,–,–,–,–,–
Cc1coc2c1C[C@@]1(C)[C@H](CCC[C@@H]1C)[C@H]2O,–,> 100,56,> 100 µM,66.2,> 100,> 100,56.3,68.4,95.7,–,–,–,–,–,–,–,–,–
COCCNCc1ccc(-c2cc3nccc(Oc4ccc(NC(=S)NC(=O)Cc5ccc(F)cc5)cc4F)c3s2)nc1,8.71,3.19,6.48,–,4.48,–,26.9,–,–,–,2110,–,1.98,1.22,–,–,–,4.68,1450
O=C(O)c1ccc(C(=O)c2ccccc2C(=O)O)cc1C(=O)O,> 100,> 100,> 100,> 100 µM,> 100,> 100,> 100,> 100,> 100,> 100,–,–,–,–,–,–,–,–,–
CCOC(=O)C(/C(=N/S(=O)(=O)c1cc(C)c(Cl)cc1[S-])[n+]1ccc(N(C)C)cc1)=C(/O)c1ccc([N+](=O)[O-])cc1,60.4,55.4,> 100,> 100 µM,23.9,–,–,> 100,88.6,> 100,–,–,–,–,–,–,–,–,–

Compound,TGI (A498 renal) [µM],TGI (HT29 colon) [µM],TGI (NCI-H226 lung) [µM],TGI (K-562 leukemia),TGI (HOP-92 NSCLC) [µM],TGI (SW-620 colon) [µM],TGI (HCC-2998 colon) [µM],TGI (DU-145 prostate) [µM],TGI (OVCAR-4 ovarian) [µM],TGI (MCF7 breast) [µM],GI50 (A498 renal) [nM],GI50 (DU-145 prostate) [µM],GI50 (NCI-H226 lung) [µM],GI50 (HOP-92 NSCLC) [µM],GI50 (SW-620 colon) [µM],GI50 (OVCAR-4 ovarian) [µM],GI50 (MCF7 breast) [µM],GI50 (HCC-2998 colon) [µM],GI50 (HT29 colon) [nM]
Nc1c(C(=O)O)nnc2cc(Cl)c(Cl)cc12,> 100,> 100,> 100,> 100 µM,–,> 100,> 100,> 100,> 100,> 100,–,–,–,–,–,–,–,–,–
COc1ccc(C2NC(=S)Nc3c2c(=O)oc2c3ccc3ccccc32)cc1 (centres undefined),> 100,> 100,> 100,> 100 µM,> 100,> 100,–,> 100,> 100,> 100,–,–,–,–,–,–,–,–,–
Cc1cc(C)n(CC(Cn2nc(C)cc2C)=C(/C(Cl)=C(/Cl)Nc2ccc([N+](=O)[O-])cc2)[N+](=O)[O-])n1,11.2,11.3,49.4,11.5 µM,8.48,17.7,11.7,14,3.4,14.3,–,–,–,–,–,–,–,–,–
COc1nc2[nH]ccc2c(=O)[nH]1,> 100,> 100,9.92,> 100 µM,> 100,> 100,> 100,–,> 100,–,–,–,–,–,–,–,–,–,–
Cn1cnc([N+](=O)[O-])c1Sc1nc(N)nc2c1ncn2C1OC(CO)C(O)C1O (centres undefined),–,33.6,> 89.3,> 100 µM,> 100,> 100,15.3,66.4,> 100,–,–,–,–,–,–,–,–,–,–
"CCC(C)C1NC(=O)C(NC(=O)c2c3nc4c(C(=O)NC5C(=O)NC(C(C)CC)C(=O)N6CCCC6C(=O)N(C)CC(=O)N(C)C(C(C)C)C(=O)OC5C)ccc(C)c4oc-3c(C)c(=O)c2N)C(C)OC(=O)C(C(C)C)N(C)C(=O)CN(C)C(=O)C2CCCN2C1=O (centres undefined) (I: TIP[Sar][NMeV] / II: TIP[Sar][NMeV]; ester I:1-I:C, II:1-II:C; linker I:N-II:N via Actinocin(1to9); configuration not given here)",0.0629,11.5,–,0.0109 µM and 0.0132 µM,0.085,0.0776,0.0364,–,0.273,–,–,–,–,–,–,–,–,–,–
CC(C)(C)OC(=O)n1c2ccccc2c2c(=O)nc(N3CCCCC3)sc21,> 100,> 100,–,> 100 µM,> 100,> 100,–,> 100,> 100,–,–,–,–,–,–,–,–,–,–
O=C(CSc1nc2ccc([N+](=O)[O-])cc2s1)c1ccc2ccccc2c1,> 100,> 100,> 100,> 100 µM,> 100,> 100,> 100,> 100,> 100,> 100,–,–,–,–,–,–,–,–,–
CN(C)c1ccc(C=Nc2ccc(Oc3ccc(Cl)cc3)c(Cl)c2)cc1,–,29.6,63.4,–,36.1,> 100,38.9,79,66.4,> 100,–,–,–,–,–,–,–,–,–
Nc1ncnc2c1sc1nc3ccccc3n12,> 100,> 100,> 100,> 100 µM,> 100,> 100,> 100,> 100,> 100,> 100,–,–,–,–,–,–,–,–,–
Cc1ccccc1N=Nc1c(O)c(S(=O)(=O)O)cc2cc(S(=O)(=O)O)ccc12,> 100,> 100,> 100,> 100 µM,> 100,> 100,> 100,> 100,> 100,> 100,–,–,–,–,–,–,–,–,–
COc1cc2oc(=O)ccc2cc1C(=O)CC(C)C,> 100,> 100,> 100,> 100 µM,> 100,> 100,> 100,> 100,> 100,> 100,–,–,–,–,–,–,–,–,–
O=c1ccc2nc3cc(Br)ccc3sc-2c1,–,> 100,> 100,> 100 µM,> 100,> 100,> 100,–,> 100,–,–,–,–,–,–,–,–,–,–
O=c1c2cc(I)ccc2nc(SCc2nncs2)n1Cc1ccccc1,65.1,> 100,> 100,> 100 µM,35.1,> 100,> 100,> 100,> 100,> 100,–,–,–,–,–,–,–,–,–
C[N+]1(CCC(=O)c2ccco2)CC2CCC(CC2)C1 (centres undefined),> 100,> 100,> 100,> 100 µM,> 100,> 100,–,> 100,> 100,> 100,–,–,–,–,–,–,–,–,–
Cn1c(=O)[nH]c2nncnc2c1=O,475,> 561,28.7,> 519 µM,71.2,> 625,> 442,–,> 319,> 501,–,–,–,–,–,–,–,–,–
O=c1[nH]c2nnc(COc3ccc(Cl)cc3Cl)n2nc1Cc1ccccc1,82,> 100,67.5,> 100 µM,69.5,> 100,–,> 100,> 100,> 100,–,–,–,–,–,–,–,–,–
Cc1c(N2C(=O)/C(=C/c3ccc(Cl)cc3)N=C2c2ccccc2)c(=O)n(-c2ccccc2)n1C,–,79.8,96.7,> 100 µM,66.6,> 100,–,> 100,> 100,> 100,–,–,–,–,–,–,–,–,–
